Read-outs that look alike come from different tables or passages of the source.
Columns and labels:
LGKC 4301 cells = test: In vitro toxicity assay (MTS assay), mouse IPMN cell line LGKC 4301; type: cell-based; settings: vs vehicle control
Procedure: (§1) Experiments were performed in technical triplicates. Statistical significance was determined by 2-sided Student T-test. […] UGT8 inhibitor UGT8-IN-1 or vehicle control (saline) was orally administrated every other day (3 mg/kg) from day-8 post cancer cell implantation for 2 weeks. Tumor volume was measured every 3 days. Statistical significance was determined by 2-way repeated measures ANOVA and treatment factor 2-sided p-value reported.
(§2) In vitro toxicity assays (MTS assays) were performed using three independent mouse IPMN cell lines (LGKC 4301, LGKC 4838, and LGKC 4861). Briefly, each cell line was treated with either vehicle control or the UGT8 inhibitors UGT8-IN-1 or zoledronic acid. Experiments were performed in technical triplicates. Statistical significance was determined by 2-sided Student T-test.

LGKC 4838 cells = test: In vitro toxicity assay (MTS assay), mouse IPMN cell line LGKC 4838; type: cell-based; settings: vs vehicle control
Procedure: as §1, §2

[1] = In vitro toxicity assay (MTS assay), mouse IPMN cell line LGKC 4861; type: cell-based
Procedure: as §1, §2

[2] = test system: mouse IPMN cell line LGKC 4861; test: Subcutaneous LGKC 4861 implant in athymic nude mice, tumor volume; type: in vivo; settings: 3 mg/kg orally every other day from day 8 for 2 weeks, vs vehicle (saline)
UGT8 = target: T1, UGT8 (Mus musculus, UniProt Q64676); settings: cited from earlier work
T1 construct: host or cells: mouse (in vivo, endogenous enzyme)
T1 sequence (Q64676 21-541): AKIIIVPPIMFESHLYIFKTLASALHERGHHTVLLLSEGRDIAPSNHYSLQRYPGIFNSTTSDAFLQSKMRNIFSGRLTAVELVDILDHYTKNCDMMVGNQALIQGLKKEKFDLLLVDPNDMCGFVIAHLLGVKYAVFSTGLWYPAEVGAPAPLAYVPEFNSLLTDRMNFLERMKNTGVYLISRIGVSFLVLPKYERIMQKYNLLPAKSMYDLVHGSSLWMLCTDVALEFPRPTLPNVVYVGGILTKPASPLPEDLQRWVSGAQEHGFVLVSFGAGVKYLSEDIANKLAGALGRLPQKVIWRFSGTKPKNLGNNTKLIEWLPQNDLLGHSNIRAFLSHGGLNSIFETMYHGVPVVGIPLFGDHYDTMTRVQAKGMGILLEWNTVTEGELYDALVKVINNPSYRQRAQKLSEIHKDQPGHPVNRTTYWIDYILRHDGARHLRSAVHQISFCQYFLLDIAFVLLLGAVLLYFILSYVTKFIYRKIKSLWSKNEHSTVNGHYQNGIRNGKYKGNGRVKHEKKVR

SMILES: O=P(O)(O)C(O)(Cn1ccnc1)P(=O)(O)O [zoledronic acid, Zoledronic acid]
- effect on cell viability (comparison of the two UGT8 inhibitors) (LGKC 4301 cells): performed similarly
- reduction in cell viability (comparison of the two UGT8 inhibitors) (LGKC 4838 cells): greater reduction in cell viability than UGT8-IN-1
- cytotoxicity ([1]; LGKC 4861 mouse IPMN cells, LGKC 4861 cells, MTS assay, vs vehicle control, read-out: reduction in cell viability): ~55%

SMILES: CNC(=O)c1csc2c(C(F)(F)F)cc(N3CCC(OC(=O)NC(C)COC(F)(F)F)CC3)nc12 (stereo in doubt) [UGT8-IN-1, [1-[3-(methylcarbamoyl)-7-(trifluoromethyl)thieno[3,2-b]pyridin-5-yl]piperidin-4-yl]N-[(2S)-1-(trifluoromethoxy)propan-2-yl]carbamate]
- effect on cell viability (comparison of the two UGT8 inhibitors) (LGKC 4301 cells): slightly more effective
- cytotoxicity [1]: ~80%
- tumor volume [2]: lower tumor volume compared to vehicle
- inhibition of incorporation of 13C-Gal into GalCer and sulfatide (UGT8; 3 mg/kg): > 90%
- effective dose (ED)50 (UGT8; incorporation of 13C-Gal into GalCer and sulfatide): 1 mg/kg
